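GI50: concentration for 50% inhibition of growth. At the TGI there is no net growth.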
Assays:
Experiment in all cases: NCI anticancer screen, dose series, 384-well format; in the data active = GI50 below about 0.43 µM; inactive = the rest
[1] = system: K-562 leukemia
[2] = system: ACHN renal
[3] = system: BT-549 breast
[4] = system: SF-295 CNS
[5] = system: T-47D breast
[6] = system: MDA-MB-435 melanoma
[7] = system: NCI-H522 lung
[8] = system: SK-MEL-28 melanoma
[9] = system: CAKI-1 renal
[10] = system: NCI-H23 lung
[11] = system: OVCAR-5 ovarian
[12] = system: SW-620 colon
[13] = system: SK-MEL-5 melanoma
[14] = system: SK-MEL-2 melanoma
[15] = system: EKVX NSCLC
[16] = system: MOLT-4 leukemia
[17] = system: 786-0 renal
[18] = system: SNB-75 CNS
[19] = system: SN12C renal
[20] = system: COLO 205 colon
[21] = system: A498 renal
[22] = system: HCT-116 colon
[23] = system: HL-60(TB) leukemia
[24] = system: KM12 colon
[25] = system: OVCAR-8 ovarian
[26] = system: MDA-MB-231 breast
[27] = system: UO-31 renal
[28] = system: HOP-62 NSCLC
[29] = system: UACC-62 melanoma
[30] = system: MDA-MB-468 breast
[31] = system: SF-539 CNS
[32] = system: HCT-15 colon
[33] = system: OVCAR-3 ovarian
[34] = system: NCI-H226 lung
[35] = system: SF-268 CNS
[36] = system: OVCAR-4 ovarian
[37] = system: CCRF-CEM leukemia
[38] = system: SR leukemia
[39] = system: U251 glioblastoma
[40] = system: LOX IMVI melanoma
[41] = system: RPMI-8226 leukemia
[42] = system: PC-3 prostate
[43] = system: NCI-H322M lung
[44] = system: DU-145 prostate
[45] = system: SK-OV-3 ovarian
[46] = system: A549 NSCLC
[47] = system: UACC-257 melanoma

Cc1cc2c(cc1C)NC1=C(N2)OC(c2c3ccccc3cc3ccccc23)C1=O (stereo not drawn)
1.35 µM: TGI [40]
4.13 µM: TGI [19]
0.34 µM: TGI [38]
6.44 µM: TGI [15]
0.924 µM: TGI [21]
0.415 µM: TGI [14]
1.86 µM: TGI [34]
2.81 µM: TGI [26]
1.68 µM: TGI [20]
active: GI50 [1] 0.208 µM | GI50 [3] 0.27 µM | GI50 [4] 0.208 µM | GI50 [6] 0.217 µM | GI50 [7] 0.192 µM | GI50 [10] 0.288 µM | GI50 [14] 0.224 µM | GI50 [16] 0.193 µM | GI50 [17] 0.261 µM | GI50 [18] 0.381 µM | GI50 [21] 0.319 µM | GI50 [22] 0.286 µM | GI50 [23] 0.212 µM | GI50 [24] 0.31 µM | GI50 [25] 0.29 µM | GI50 [28] 0.325 µM | GI50 [29] 0.329 µM | GI50 [30] 0.218 µM | GI50 [31] 0.17 µM | GI50 [32] 0.261 µM | GI50 [33] 0.237 µM | GI50 [35] 0.354 µM | GI50 [36] 0.377 µM | GI50 [37] 0.194 µM | GI50 [38] 0.189 µM | GI50 [39] 0.281 µM | GI50 [40] 0.361 µM | GI50 [41] 0.223 µM | GI50 [42] 0.422 µM | GI50 [45] 0.253 µM
4.41 µM: TGI [8]
1.05 µM: TGI [35]
0.39 µM: TGI [41]
0.495 µM: TGI [4]
5.69 µM: TGI [9]
1.97 µM: TGI [36]
6.25 µM: TGI [5]
0.964 µM: TGI [24]
0.436 µM: TGI [30]
0.425 µM: TGI [6]
0.363 µM: TGI [23]
0.711 µM: TGI [32]
5.22 µM: TGI [11]
13.6 µM: TGI [2]
0.337 µM: TGI [16]
0.63 µM: TGI [17]
0.491 µM: TGI [1]
0.825 µM: TGI [28]
1.44 µM: TGI [42]
0.582 µM: TGI [33]
inactive: GI50 [2] 0.546 µM | GI50 [5] 1.07 µM | GI50 [8] 0.573 µM | GI50 [9] 0.75 µM | GI50 [11] 1.3 µM | GI50 [12] 0.454 µM | GI50 [13] 0.603 µM | GI50 [15] 0.431 µM | GI50 [19] 0.652 µM | GI50 [20] 0.786 µM | GI50 [26] 0.554 µM | GI50 [27] 1.94 µM | GI50 [34] 0.743 µM | GI50 [43] 1.22 µM | GI50 [44] 0.429 µM | GI50 [46] 0.626 µM | GI50 [47] 0.716 µM
0.341 µM: TGI [37]
7.47 µM: TGI [12]
0.691 µM: TGI [39]
1.43 µM: TGI [44]
2.2 µM: TGI [46]
0.759 µM: TGI [22]
1.15 µM: TGI [13]
7.46 µM: TGI [43]
1.25 µM: TGI [29]
0.763 µM: TGI [10]
0.385 µM: TGI [7]
0.794 µM: TGI [25]
0.38 µM: TGI [31]
1.23 µM: TGI [18]
0.732 µM: TGI [45]
0.581 µM: TGI [3]
9.3 µM: TGI [27]
3.29 µM: TGI [47]

O=C(O)c1ccc(CN2CCC(CN[C@@H]3C[C@H]3c3ccccc3)CC2)cc1
> 100 µM: TGI [1] | TGI [2] | TGI [3] | TGI [4] | TGI [5] | TGI [6] | TGI [7] | TGI [8] | TGI [9] | TGI [10] | TGI [11] | TGI [12] | TGI [13] | TGI [14] | TGI [15] | TGI [16] | TGI [17] | TGI [18] | TGI [19] | TGI [20] | TGI [21] | TGI [22] | TGI [23] | TGI [24] | TGI [25] | TGI [26] | TGI [27] | TGI [28] | TGI [29] | TGI [30] | TGI [31] | TGI [32] | TGI [33] | TGI [34] | TGI [35] | TGI [36] | TGI [37] | TGI [38] | TGI [39] | TGI [40] | TGI [41] | TGI [42] | TGI [43] | TGI [44] | TGI [45] | TGI [46] | TGI [47]
inactive: GI50 [1] > 100 µM | GI50 [2] > 100 µM | GI50 [3] > 100 µM | GI50 [4] > 100 µM | GI50 [5] > 100 µM | GI50 [6] > 100 µM | GI50 [7] > 100 µM | GI50 [8] > 100 µM | GI50 [9] > 100 µM | GI50 [10] > 100 µM | GI50 [11] > 100 µM | GI50 [12] > 100 µM | GI50 [13] > 100 µM | GI50 [14] > 100 µM | GI50 [15] > 100 µM | GI50 [16] > 100 µM | GI50 [17] > 100 µM | GI50 [18] > 100 µM | GI50 [19] > 100 µM | GI50 [20] > 100 µM | GI50 [21] > 100 µM | GI50 [22] > 100 µM | GI50 [23] > 100 µM | GI50 [24] > 100 µM | GI50 [25] > 100 µM | GI50 [26] > 100 µM | GI50 [27] > 100 µM | GI50 [28] > 100 µM | GI50 [29] > 100 µM | GI50 [30] > 100 µM | GI50 [31] > 100 µM | GI50 [32] > 100 µM | GI50 [33] > 100 µM | GI50 [34] > 100 µM | GI50 [35] > 100 µM | GI50 [36] > 100 µM | GI50 [37] > 100 µM | GI50 [38] > 100 µM | GI50 [39] > 100 µM | GI50 [40] > 100 µM | GI50 [41] > 100 µM | GI50 [42] > 100 µM | GI50 [43] > 100 µM | GI50 [44] > 100 µM | GI50 [45] > 100 µM | GI50 [46] > 100 µM | GI50 [47] > 100 µM

From PubChem BioAssay (NCI)
